{"source": "paper PMC12888920", "about": "“MMP-9 regulates disulphide isomerase activity of TGM2 to enhance fusion glycoprotein-mediated syncytium formation of respiratory syncytial virus” (Protein & Cell, 2025)", "key": {"HEp-2 cells": {"system": "HEp-2 cells", "experiment": "Cell viability assay (CellTiter-Glo) in HEp-2 cells", "assay_type": "cell-based", "method": "(§1) Figure 7. MMP-9-mediated TGM2 cleavage potentiates RSV–host interaction. (A) Cytotoxicity profiling. Dose-response curves of TGM2 inhibitors (ZED-1227, Cystamine, Bacitracin, E64FC26, ML359) in HEp-2 cells (72 h treatment). Viability was assessed by CellTiter-Glo assay. Data normalized to untreated controls. mean ± SD, n = 3. (B) Antiviral efficacy. Viral inhibition (FFA) in RSV A2-infected HEp-2 cells treated with TGM2 inhibitors at threefold dilution gradients: ZED-1227 (60–10 µmol/L), Cystamine (200–22.2 µmol/L), Bacitracin (500–50 µmol/L), E64FC26 (0.2–0.05 µmol/L), and ML359 (10–1.1 µmol/L). DMSO as vehicle control. mean ± SD, n = 3. (C) TGM2–F protein interaction. Co-IP analysis in HEK293T cells co-expressing TGM2 and RSV F (48 h). Immunoblots were probed with anti-TGM2, anti-F, or IgG control. Blots represent three independent experiments. (D) Binding kinetics. BLI quantification of TGM2–DS-Cav1 (RSV F prefusion conformation) interaction. The results represent three biological replicates. (E) Ternary complex formation. Co-IP of MMP-9-TGM2-F complex in HEK293T cells (48 h). GAPDH as loading control. Below the asterisk represents the objective band. Blots represent three independent experiments. (F) Impairing MMP-9/TGM2/RSV-F complex inhibits RSV infection. […] (G) Proteolytic enhancement. MMP-9-cleaved TGM2 (TGM2-44) enhances protein disulfide isomerase (PDI) activity was measured using reduced DS-Cav1. mean ± SD, n = 3. (H) Truncation functional analysis. Viral titers (FFA) in HEp-2 cells expressing MMP-9, TGM2, or cleavage fragments (TGM2-44/41) post RSV infection (MOI = 1, 72 hpi). mean ± SD, n = 3. (I) Syncytium rescue. Syncytia area quantification in TGM2 truncation-expressing cells (ImageJ software). mean ± SD, n = 3. (J) Subcellular redistribution. Confocal microscopy of HEp-2 cells co-expressing TGM2 truncations (HA/FLAG-tagged) and RSV F (72 hpi). Scale bar: 10 µm. Images represent three biological replicates. (K) F protein expression. Fluorescence intensity quantification of RSV F in (J) (ImageJ software). mean ± SD, n = 3. (L) Fusion competence assay. Syncytium formation in HEK293T cells co-expressing TGM2 truncations and RSV F/F-C37S/C69S mutants (48 h). Scale bar: 10 µm. Images represent three biological replicates. (M) Mutant validation. RSV F expression levels in (L) were quantified by ImageJ software. mean ± SD, n = 3. The results are representatively shown with three random experiments. The error bars indicate the mean ± SD of three technical replicates (n = 3). […]\n(§2) (B-C) Cytotoxicity profiles in HEp-2 (B) and HBEC (C) cells. […] Viability was assessed using the CellTiter-Glo assay (G7570, Promega). […]\n(§3) 95 Cell viability was evaluated using a CellTiter -Glo® Luminescent Cell Viability Assay 96 kit (G7571, Promega) according to the manufacturer’s instructions. […]"}, "RSV A2 [1]": {"system": "RSV A2", "experiment": "Viral inhibition (FFA) in RSV A2-infected HEp-2 cells treated with TGM2 inhibitors", "assay_type": "cell-based, Respiratory syncytial virus", "conditions": "HEp-2, RSV A2; ZED-1227 60–10, Cystamine 200–22.2, Bacitracin 500–50, E64FC26 0.2–0.05, ML359 10–1.1 µmol/L", "method": "Figure 7. MMP-9-mediated TGM2 cleavage potentiates RSV–host interaction. (A) Cytotoxicity profiling. Dose-response curves of TGM2 inhibitors (ZED-1227, Cystamine, Bacitracin, E64FC26, ML359) in HEp-2 cells (72 h treatment). Viability was assessed by CellTiter-Glo assay. Data normalized to untreated controls. mean ± SD, n = 3. (B) Antiviral efficacy. Viral inhibition (FFA) in RSV A2-infected HEp-2 cells treated with TGM2 inhibitors at threefold dilution gradients: ZED-1227 (60–10 µmol/L), Cystamine (200–22.2 µmol/L), Bacitracin (500–50 µmol/L), E64FC26 (0.2–0.05 µmol/L), and ML359 (10–1.1 µmol/L). DMSO as vehicle control. mean ± SD, n = 3. (C) TGM2–F protein interaction. Co-IP analysis in HEK293T cells co-expressing TGM2 and RSV F (48 h). Immunoblots were probed with anti-TGM2, anti-F, or IgG control. Blots represent three independent experiments. (D) Binding kinetics. BLI quantification of TGM2–DS-Cav1 (RSV F prefusion conformation) interaction. The results represent three biological replicates. (E) Ternary complex formation. Co-IP of MMP-9-TGM2-F complex in HEK293T cells (48 h). GAPDH as loading control. Below the asterisk represents the objective band. Blots represent three independent experiments. (F) Impairing MMP-9/TGM2/RSV-F complex inhibits RSV infection. […] (G) Proteolytic enhancement. MMP-9-cleaved TGM2 (TGM2-44) enhances protein disulfide isomerase (PDI) activity was measured using reduced DS-Cav1. mean ± SD, n = 3. (H) Truncation functional analysis. Viral titers (FFA) in HEp-2 cells expressing MMP-9, TGM2, or cleavage fragments (TGM2-44/41) post RSV infection (MOI = 1, 72 hpi). mean ± SD, n = 3. (I) Syncytium rescue. Syncytia area quantification in TGM2 truncation-expressing cells (ImageJ software). mean ± SD, n = 3. (J) Subcellular redistribution. Confocal microscopy of HEp-2 cells co-expressing TGM2 truncations (HA/FLAG-tagged) and RSV F (72 hpi). Scale bar: 10 µm. Images represent three biological replicates. (K) F protein expression. Fluorescence intensity quantification of RSV F in (J) (ImageJ software). mean ± SD, n = 3. (L) Fusion competence assay. Syncytium formation in HEK293T cells co-expressing TGM2 truncations and RSV F/F-C37S/C69S mutants (48 h). Scale bar: 10 µm. Images represent three biological replicates. (M) Mutant validation. RSV F expression levels in (L) were quantified by ImageJ software. mean ± SD, n = 3. The results are representatively shown with three random experiments. The error bars indicate the mean ± SD of three technical replicates (n = 3). Statistical analysis: one-way ANOVA with Dunnett’s post hoc test (B, F, G, H, I, K, M); unpaired two-tailed Student’s t-test (F, H, I, K, M). *P < 0.05, **P < 0.01, ***P < 0.001; ns, not significant."}, "RSV A2 [2]": {"system": "RSV A2", "experiment": "Antiviral activity (FFA) against RSV A2 in HEp-2 cells", "assay_type": "cell-based", "conditions": "human respiratory syncytial virus; HEp-2, RSV A2, MOI = 0.1, 72 hpi; read-out: EC50", "description": "(§4) Figure 1. Antiviral activity of metalloproteinase inhibitors against RSV in vitro. (A) Experimental workflow for RSV A2 infection and compound treatment. (B) High-throughput screening of TargetMol L1100 library (246 host protease inhibitors targeting 10 pathways: MMPs, caspases, proteasomes, apoptosis regulators, cysteine proteases, gamma-secretase, autophagy modulators, serine proteases, DPP-4, and beta-secretase) using concentration gradients (1, 5, 10 µmol/L). HEp-2 cells were pretreated with compounds for 1 hour prior to RSV A2 infection (MOI = 0.1). Plaque formation was quantified at 72 hours post-infection (hpi) and normalized to DMSO controls. […] (G) Target overlap analysis of four MMP-9-targeting inhibitors. (H) Viral titers in supernatants of HEp-2 cells transfected with MMP-specific siRNAs (24 h) followed by RSV A2 infection (MOI = 1, 72 h). mean ± SD, n = 3. The results are representatively shown with three random experiments. The error bars indicate the mean ± SD of three technical replicates (n = 3). Statistical significance was determined by one-way ANOVA with Dunnett’s post hoc test: *P < 0.05, ***P < 0.001; ns, not significant. […]\n(§5) 110 overtly cytotoxic) underwent dose -response validation (0.00004 –10 μM) to generate\n(§6) 111 EC50 curves (GraphPad Prism 8.0) .\n(§7) 112 Evaluation of in vitro antiviral activity\n(§8) 113 Compound inhibitor treatments: HEp-2 cells (1.3×10⁴/well) or HBEC (1.8×10⁴/well)\n(§9) 114 were pretreated with test compounds for 1 h before RSV A2/B18537 infection\n(§10) 115 (MOI=0.1 or 0.3). Viral inhibition was quantified at 72 hpi via FFA. Fixed cells (4%\n(§11) 116 PFA) were permeabilized (0.3% Triton X-100), stained with anti-RSV-FITC\n(§12) 118 Fluorescent foci were normalized to nuclear counts (ImageJ software) for EC 50\n(§13) 119 determination via four-parameter logistic regression (GraphPad Prism 8.0). Data\n(§14) 120 represent triplicate experiments. […]"}, "RSV B18537 [3]": {"system": "RSV B18537", "experiment": "Antiviral activity (FFA) against RSV B18537 in HEp-2 cells", "assay_type": "cell-based", "conditions": "human respiratory syncytial virus; HEp-2, RSV B18537, MOI = 0.1, 72 hpi; read-out: EC50", "description": "as §4\n109 111813, MCE) and 0.1% DMSO vehicle. Primary hits (>50% CPE reduction + not\nas §5, §6, §7, §8, §9, §10, §11, §12, §13, §14"}, "RSV A2 [4]": {"system": "RSV A2", "experiment": "Antiviral activity (FFA) against RSV A2 in primary human bronchial epithelial cells (HBEC)", "assay_type": "cell-based", "conditions": "human respiratory syncytial virus, Epithelial cell; HBEC, RSV A2, MOI = 0.3, 72 hpi; read-out: EC50", "description": "as §4, §7, §8, §9, §10, §11, §12, §13, §14"}, "RSV B18537 [5]": {"system": "RSV B18537", "experiment": "Antiviral activity (FFA) against RSV B18537 in HBEC", "assay_type": "cell-based", "conditions": "human respiratory syncytial virus; HBEC, RSV B18537, MOI = 0.3, 72 hpi; read-out: EC50", "description": "as §4, §7, §8, §9, §10, §11, §12, §13, §14"}, "[6]": {"experiment": "Cell viability assay (CellTiter-Glo) in HEp-2 cells", "assay_type": "cell-based", "conditions": "human", "method": "as §1, §2, §3"}, "RSV F protein (DS-Cav1)": {"molecular_target": "RSV F protein (DS-Cav1)", "experiment": "Biolayer interferometry, TGM2 binding to RSV F protein (DS-Cav1)", "design": "species or system Respiratory syncytial virus", "conditions": "BLI, biotinylated DS-Cav1 on SA biosensors", "method": "Figure 7. MMP-9-mediated TGM2 cleavage potentiates RSV–host interaction. (A) Cytotoxicity profiling. Dose-response curves of TGM2 inhibitors (ZED-1227, Cystamine, Bacitracin, E64FC26, ML359) in HEp-2 cells (72 h treatment). Viability was assessed by CellTiter-Glo assay. Data normalized to untreated controls. mean ± SD, n = 3. (B) Antiviral efficacy. Viral inhibition (FFA) in RSV A2-infected HEp-2 cells treated with TGM2 inhibitors at threefold dilution gradients: ZED-1227 (60–10 µmol/L), Cystamine (200–22.2 µmol/L), Bacitracin (500–50 µmol/L), E64FC26 (0.2–0.05 µmol/L), and ML359 (10–1.1 µmol/L). DMSO as vehicle control. mean ± SD, n = 3. (C) TGM2–F protein interaction. […] BLI quantification of TGM2–DS-Cav1 (RSV F prefusion conformation) interaction. […] MMP-9-cleaved TGM2 (TGM2-44) enhances protein disulfide isomerase (PDI) activity was measured using reduced DS-Cav1. mean ± SD, n = 3. […] Syncytia area quantification in TGM2 truncation-expressing cells (ImageJ software). mean ± SD, n = 3. […] Fluorescence intensity quantification of RSV F in (J) (ImageJ software). mean ± SD, n = 3. […] RSV F expression levels in (L) were quantified by ImageJ software. mean ± SD, n = 3. […]\n271 TGM2) were quantified using a Sartorius Octet R4 system. […]\n275 equilibration. MMP-9 (MCE) binding was assessed across two concentration ranges: […]\n281 (Sartorius) at 20 µg/mL. TGM2 binding was evaluated across 0 –100 µM (7 […]"}}}
{"compound": "CCOC(=O)C1(CCOc2ccccc2)CCN(Cc2ccc(O)c(Cl)c2)CC1", "note": "[ML359]", "values": [{"measurement": "CC50", "setting": "HEp-2 cells", "result": 26100, "unit": "nM"}, {"measurement": "inhibition of RSV replication (antiviral efficacy)", "setting": "RSV A2 [1]", "result": "strong antiviral efficacy"}]}
{"compound": "Cc1cnc(N2CC3(CCOCC3)C2)c(C(=O)Nc2ccc(C(=O)N3CCc4cc(C(=O)Nc5c(C)cccc5F)sc4-c4ccccc43)cc2)c1", "note": "[PC786]", "values": [{"measurement": "EC50", "setting": "RSV A2 [2]", "result": 2.6, "unit": "nM"}, {"measurement": "EC50", "setting": "RSV B18537 [3]", "result": 32.9, "unit": "nM"}, {"measurement": "EC50", "setting": "RSV A2 [4]", "result": 45.5, "unit": "nM"}, {"measurement": "EC50", "setting": "RSV B18537 [5]", "result": 47.1, "unit": "nM"}]}
{"compound": "CCC(CC)CNC(=O)Cn1cccc(NC(=O)[C@H](CC/C=C/C(=O)OC)NC(=O)c2cncn2C)c1=O", "note": "[ZED-1227]", "values": [{"measurement": "CC50 at 72 h", "setting": "[6]", "result": 78700, "unit": "nM"}, {"measurement": "inhibition of RSV replication (antiviral efficacy)", "setting": "RSV A2 [1]", "result": "did not inhibit RSV replication"}]}
{"compound": "Bacitracin", "values": [{"measurement": "inhibition of RSV replication (antiviral efficacy)", "setting": "RSV A2 [1]", "result": "strong antiviral efficacy"}]}
{"compound": "TGM2: recombinant transglutaminase 2 protein used in BLI", "values": [{"measurement": "Kd", "setting": "RSV F protein (DS-Cav1)", "result": 6310, "unit": "nM"}]}
